pIC50: −log10 of the molar value.
What was measured:
α1β1 integrin = target: T1, α1β1 integrin (Mus musculus, UniProt P09055+Q3V3R4); assay: adhesion of B16F10 cells to collagen IV; assay type: cell-based; conditions: α1β1, Coll IV
T1 construct: endogenous in cells; host or cells: B16F10 cells

α6β1 integrin = target: T2, α6β1 integrin (Homo sapiens, UniProt P05556+P23229); assay: adhesion of α6K562 cells to laminin; assay type: cell-based; conditions: α6β1, LM
T2 construct: expressed in transfected cells; host or cells: α6K562 cells

angiogenesis = assay: Japanese quail chorioallantoic membrane (CAM) angiogenesis assay; assay type: in vivo; conditions: 20 μg and 50 μg, no angiogenesis stimulators
Method: The disintegrins obtustatin and eristostatin were evaluated for their effect on angiogenesis via a Japanese quail chorioallantoic membrane (CAM) assay, as is known in the art (see, for example, Parsons-Wingerter P et al., “A Novel Assay of Angiogenesis in the Quail Chorioallantoic Membrane: Stimulation by bFGF and Inhibition by Angiostatin According to Fractal Dimension and Grid Intersection.” Microvascular Research 55(3):201-214, 1998, the disclosure of which is herein incorporated by reference).

[1] = test system: human melanoma cells (MV3); assay: apoptosis by caspase-3 levels in melanoma MV3 cells; assay type: cell-based
Method: The mechanisms of the cancer-suppressing effect observed for obtustatin were investigated as follows. Dermal microvascular endothelial cells (EC) and human melanoma cells (MV3) were cultured and exposed to TNF-α, vincristine and obtustatin. (TNF-α and vincristine are compounds which induce cell death by apoptosis in both normal and cancerous cells.) Control cells received only vehicle. The extent of apoptosis was measured by determining caspase-3 levels.

[2] = test system: human microvascular endothelial cells (HMVECs); assay: BrdU incorporation growth assay in HMVECs; assay type: cell-based; conditions: 2 μM
Method: Human microvascular endothelial cells (HMVECs) and melanoma cells (HS.939T) were cultured and treated with vehicle (control), 2 μM obtustatin, 2 μM echistatin or 50 ng/ml TNF-α. Growth of the cells was determined by a standard BrdU incorporation assay (Chemicon), according to the manufacturer's instructions.

HMVECs = assay: endothelial cell tube formation assay on Matrigel; assay type: cell-based, human; conditions: 60 μM, 24 hours
Method: An endothelial cell tube formation assay was performed to assess the anti-angiogenic effect of obtustatin in vitro as follows. Twenty-four well plates were coated with a 1:2 dilution of Matrigel™ in EBM-2 medium, which was polymerized by incubation for 1 hour at 37° C. HMVECs (1.2×10^5 cells per well) were added onto the polymerized Matrigel™ (BD Biosciences, Lexington, Ky.) in EBM-2 medium, in the absence or presence of 60 μM obtustatin. The plates were incubated for 24 hours at 37° C., and analyzed for the extent of tube formation by observation with an inverted microscope, using a magnification of 10× ocular and 10× objective.

α2β1 integrin = α2β1 integrin (Homo sapiens, UniProt P05556+P17301); assay: adhesion of α2K562 cells to collagen I; assay type: cell-based; design: expressed in transfected cells; host or cells: α2K562 cells
Method: Adhesive ligands for the selected integrins consisted of collagen IV (0.2 μg/well), collagen I, fibronectin, or vascular cell adhesion molecule-1 (VCAM-1). Adhesive ligands in 0.02 M acetic acid were immobilized overnight at 4° C. on a 96-well plate. Plates were then blocked with 1% (w/v) BSA (bovine serum albumin) in Hank's Balanced Salt Solution (HBSS) containing 3 mM Mg^2+ at room temperature for 1-2 hours to prevent cells from non-specifically binding to the plates. α1K562, α2K562, K562, A5, and Jurkat cells expressing the α1β1, α2β1, α5β1, αIIbβ3, and α4β1 integrins respectively were labeled by incubation with 12.5 μM 5-chloromethylfluorescein diacetate (CMFDA) in HBSS for 15 minutes at 37° C. CMFDA labeled cells were then pelleted, washed and resuspended in HBSS buffer containing 3 mM Mg^2+ and 1% (w/v) BSA. […] Plates were then incubated at 37° C. for 30 minutes as indicated in Table 5 and washed three times with HBSS containing 3 mM Mg^2+ and 1% (w/v) BSA to remove unbound cells. Bound cells were lysed using 0.5% (v/v) Triton X-100 in H2O. Fluorescent CMFDA released by lysis of adherent cells in a given well was read using a Cytofluor 2350 fluorescence plate reader.
The effect of obtustatin, viperisrastatin, echistatin, and eristostatin on the binding of selected integrins to their adhesive ligands was evaluated using the cell adhesion assay described in Example 6. The integrin-expressing cells, integrins and corresponding adhesive ligands, and the results of the cell adhesion assay are shown in Table 6.

T1 sequence (Q3V3R4 29-1179): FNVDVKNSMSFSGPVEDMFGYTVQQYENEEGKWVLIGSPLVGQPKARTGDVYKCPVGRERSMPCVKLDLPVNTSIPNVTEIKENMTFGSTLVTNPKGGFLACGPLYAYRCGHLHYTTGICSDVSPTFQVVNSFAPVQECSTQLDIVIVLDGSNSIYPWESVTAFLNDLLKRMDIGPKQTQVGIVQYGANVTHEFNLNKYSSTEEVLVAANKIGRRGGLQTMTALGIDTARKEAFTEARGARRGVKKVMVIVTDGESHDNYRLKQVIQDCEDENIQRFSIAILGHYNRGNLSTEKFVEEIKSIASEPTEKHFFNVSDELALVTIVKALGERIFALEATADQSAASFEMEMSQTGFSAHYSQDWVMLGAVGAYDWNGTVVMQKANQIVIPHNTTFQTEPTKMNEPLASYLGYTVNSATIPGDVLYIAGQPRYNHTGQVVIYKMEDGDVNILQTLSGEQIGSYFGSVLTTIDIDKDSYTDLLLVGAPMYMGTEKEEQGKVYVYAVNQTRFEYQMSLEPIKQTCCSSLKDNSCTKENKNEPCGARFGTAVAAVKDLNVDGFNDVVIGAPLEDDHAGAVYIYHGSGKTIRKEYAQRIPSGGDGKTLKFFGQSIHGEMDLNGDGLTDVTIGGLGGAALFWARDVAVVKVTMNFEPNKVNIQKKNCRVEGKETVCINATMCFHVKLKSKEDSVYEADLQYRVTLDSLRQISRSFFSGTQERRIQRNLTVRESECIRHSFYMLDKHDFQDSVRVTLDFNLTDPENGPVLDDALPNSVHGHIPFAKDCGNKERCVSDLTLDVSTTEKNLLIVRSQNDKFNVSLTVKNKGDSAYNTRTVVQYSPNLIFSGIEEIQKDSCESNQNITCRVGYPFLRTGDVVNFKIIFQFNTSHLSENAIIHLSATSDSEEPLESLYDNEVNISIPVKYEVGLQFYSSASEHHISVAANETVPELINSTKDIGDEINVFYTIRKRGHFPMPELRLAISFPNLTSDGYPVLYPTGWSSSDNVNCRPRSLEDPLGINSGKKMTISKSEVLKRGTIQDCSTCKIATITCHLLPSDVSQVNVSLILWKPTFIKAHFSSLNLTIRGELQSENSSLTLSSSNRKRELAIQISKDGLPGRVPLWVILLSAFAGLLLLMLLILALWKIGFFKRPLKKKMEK
T1 sequence (P09055 21-798): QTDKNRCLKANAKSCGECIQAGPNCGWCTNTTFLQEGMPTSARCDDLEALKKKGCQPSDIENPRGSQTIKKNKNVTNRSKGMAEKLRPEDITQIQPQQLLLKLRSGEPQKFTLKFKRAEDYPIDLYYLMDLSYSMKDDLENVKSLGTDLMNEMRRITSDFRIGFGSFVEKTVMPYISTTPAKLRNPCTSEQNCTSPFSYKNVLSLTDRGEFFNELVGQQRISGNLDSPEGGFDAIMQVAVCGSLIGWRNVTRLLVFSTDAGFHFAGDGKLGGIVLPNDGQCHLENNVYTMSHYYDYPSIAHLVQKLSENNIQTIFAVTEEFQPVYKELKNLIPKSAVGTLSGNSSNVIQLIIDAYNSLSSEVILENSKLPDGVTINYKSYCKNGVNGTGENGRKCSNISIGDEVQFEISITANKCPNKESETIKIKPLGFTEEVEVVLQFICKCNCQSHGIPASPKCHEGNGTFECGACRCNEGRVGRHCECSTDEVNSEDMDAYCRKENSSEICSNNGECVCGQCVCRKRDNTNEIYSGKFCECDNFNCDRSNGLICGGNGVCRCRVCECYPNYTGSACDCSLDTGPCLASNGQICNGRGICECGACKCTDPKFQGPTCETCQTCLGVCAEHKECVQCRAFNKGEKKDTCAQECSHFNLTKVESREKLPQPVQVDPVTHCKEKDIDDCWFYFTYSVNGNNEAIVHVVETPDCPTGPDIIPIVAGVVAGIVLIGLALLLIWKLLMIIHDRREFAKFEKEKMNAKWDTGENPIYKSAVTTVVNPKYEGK
T2 sequence (P23229 24-938 limits assumed): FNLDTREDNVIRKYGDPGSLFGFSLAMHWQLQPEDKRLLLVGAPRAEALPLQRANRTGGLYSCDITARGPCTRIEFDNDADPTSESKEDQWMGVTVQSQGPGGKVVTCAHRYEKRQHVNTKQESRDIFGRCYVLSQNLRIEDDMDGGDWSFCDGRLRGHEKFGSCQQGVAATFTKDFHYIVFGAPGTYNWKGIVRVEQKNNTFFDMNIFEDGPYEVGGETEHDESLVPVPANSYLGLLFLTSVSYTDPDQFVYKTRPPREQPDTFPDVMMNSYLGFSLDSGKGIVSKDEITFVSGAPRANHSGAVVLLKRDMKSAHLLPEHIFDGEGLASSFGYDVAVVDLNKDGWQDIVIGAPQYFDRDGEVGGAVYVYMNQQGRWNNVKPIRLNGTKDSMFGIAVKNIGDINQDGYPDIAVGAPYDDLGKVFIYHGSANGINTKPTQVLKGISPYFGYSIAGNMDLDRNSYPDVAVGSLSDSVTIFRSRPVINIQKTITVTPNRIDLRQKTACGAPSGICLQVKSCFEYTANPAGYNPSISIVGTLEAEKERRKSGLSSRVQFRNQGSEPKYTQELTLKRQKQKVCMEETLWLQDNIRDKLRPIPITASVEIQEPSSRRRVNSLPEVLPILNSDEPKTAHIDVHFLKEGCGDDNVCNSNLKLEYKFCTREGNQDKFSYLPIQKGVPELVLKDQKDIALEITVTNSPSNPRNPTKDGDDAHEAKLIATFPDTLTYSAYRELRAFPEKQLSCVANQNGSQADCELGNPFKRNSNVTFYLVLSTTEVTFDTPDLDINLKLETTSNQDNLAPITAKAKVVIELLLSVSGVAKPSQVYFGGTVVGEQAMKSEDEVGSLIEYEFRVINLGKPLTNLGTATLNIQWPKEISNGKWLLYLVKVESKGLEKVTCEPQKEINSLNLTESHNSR
T2 sequence (P23229 942-1130 partner limits assumed): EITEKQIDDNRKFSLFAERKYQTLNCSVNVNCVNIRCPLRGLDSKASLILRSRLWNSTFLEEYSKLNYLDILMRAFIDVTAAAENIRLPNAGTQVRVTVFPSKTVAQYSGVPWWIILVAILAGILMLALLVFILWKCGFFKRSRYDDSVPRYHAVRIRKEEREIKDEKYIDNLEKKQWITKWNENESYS
T2 sequence (P05556 21-798): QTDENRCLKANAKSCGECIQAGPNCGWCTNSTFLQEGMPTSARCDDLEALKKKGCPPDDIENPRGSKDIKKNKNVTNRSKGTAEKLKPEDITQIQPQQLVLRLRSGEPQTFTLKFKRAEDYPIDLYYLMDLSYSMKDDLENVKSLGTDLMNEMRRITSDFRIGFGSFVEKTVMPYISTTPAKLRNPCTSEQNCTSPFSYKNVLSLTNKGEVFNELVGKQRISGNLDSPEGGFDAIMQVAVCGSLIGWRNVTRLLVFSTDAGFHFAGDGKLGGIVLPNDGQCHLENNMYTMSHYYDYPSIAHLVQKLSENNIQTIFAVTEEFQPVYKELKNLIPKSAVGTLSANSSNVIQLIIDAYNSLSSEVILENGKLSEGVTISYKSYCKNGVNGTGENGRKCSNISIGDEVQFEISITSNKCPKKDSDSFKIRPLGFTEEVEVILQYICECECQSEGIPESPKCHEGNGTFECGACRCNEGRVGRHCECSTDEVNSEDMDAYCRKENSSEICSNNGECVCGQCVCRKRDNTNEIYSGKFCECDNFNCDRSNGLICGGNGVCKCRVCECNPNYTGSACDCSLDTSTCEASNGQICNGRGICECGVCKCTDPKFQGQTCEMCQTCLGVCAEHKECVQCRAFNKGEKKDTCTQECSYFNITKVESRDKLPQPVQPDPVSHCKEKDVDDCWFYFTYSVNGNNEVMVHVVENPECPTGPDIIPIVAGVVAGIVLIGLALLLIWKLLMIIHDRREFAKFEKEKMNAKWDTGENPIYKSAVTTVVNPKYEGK

Obtustatin (CTTGPCCRQCKLKPAGTTCWKTSLTSHYCTGKSCDCPLYPG)
pIC50 (α1β1 integrin): 9.70
pIC50 (α6β1 integrin): < 5.00
inhibitory activity on angiogenesis (fractal dimension) (angiogenesis): up to 30 % of control
apoptosis (caspase-3) [1]: not in MV3 cells
growth (BrdU incorporation) [2]: inhibited growth
formation of HMVEC tubes on Matrigel (HMVECs): completely abolished
pIC50 (α2β1 integrin): < 5.00

Reference: patent publication US20030186334A1, “KTS-disintegrins” (Temple University - Of the Commonwealth System of Higher …, priority 2001, published 2003)
